For one assay, the target named is T1, human factor XIa (Homo sapiens, UniProt P03951).
T1 construct: purchased Kordia
The experiment in a line: Measurement of FXIa inhibition (fluorogenic peptide substrate Boc-Glu(OBzl)-Ala-Arg-AMC). In kind it is biochemical. As to conditions: factor XIa from Kordia, 15 min preincubation, 30 min at 22° C., fluorescence. The gist of the method: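 Released AMC fluorescence (360/460 nm) read after 30 min at 22 °C. The reaction was started with Boc-Glu(OBzl)-Ala-Arg-AMC (10 μM stock) after a 15 min preincubation of the enzyme (0.45 nM stock) with compound (final 50 μM to 0.00013 μM).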

Another assay relates to human and animal plasma. The experiment in a line: Determination of anticoagulatory activity: activated partial thromboplastin time (aPTT) in plasma. As to conditions: concentration of test substance which brings about a 1.5-fold extension of the aPTT; plasma species not given. The gist of the method:
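Citrated plasma (1:9, 0.11 M citrate; 4000 g, 15 min) from human or animal blood incubated with test compound and cephalin/kaolin PTT reagent for 3 min at 37° C.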

pIC50: −log10 of the molar value. Structures can show the parent of a compound that is named as a salt.

T1 sequence (P03951 388-625 limits assumed): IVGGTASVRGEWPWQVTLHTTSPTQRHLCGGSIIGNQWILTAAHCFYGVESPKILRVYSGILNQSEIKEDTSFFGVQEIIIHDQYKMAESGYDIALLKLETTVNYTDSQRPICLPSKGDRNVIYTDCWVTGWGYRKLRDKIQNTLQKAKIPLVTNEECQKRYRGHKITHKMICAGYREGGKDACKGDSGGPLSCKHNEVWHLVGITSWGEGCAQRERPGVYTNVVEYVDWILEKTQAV
T1 sequence (P03951 19-387 partner limits assumed): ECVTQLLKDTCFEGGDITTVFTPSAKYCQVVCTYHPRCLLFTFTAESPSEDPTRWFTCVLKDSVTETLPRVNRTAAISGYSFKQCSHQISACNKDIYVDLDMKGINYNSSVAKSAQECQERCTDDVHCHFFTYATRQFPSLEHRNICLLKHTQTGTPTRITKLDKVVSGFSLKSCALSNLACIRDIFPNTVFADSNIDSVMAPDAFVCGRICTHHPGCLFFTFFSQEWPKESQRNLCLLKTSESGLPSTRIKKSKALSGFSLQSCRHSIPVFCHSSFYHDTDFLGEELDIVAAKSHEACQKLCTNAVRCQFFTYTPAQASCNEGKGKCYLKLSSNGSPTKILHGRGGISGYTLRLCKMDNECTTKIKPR

By pIC50 is commonly meant the negative decadic logarithm of the IC50, by convention in mol/L. Read a low pIC50 as a large IC50. In turn, `Cc1cc(C(=O)NC2CCNCC2)ccc1-c1ccc(C[C@H](NC(=O)[C@H]2CC[C@H](CN)CC2)C(=O)Nc2ccc(-c3nn[nH]n3)cc2)cc1F` [Example 61, 4′-[(2S)-2-({[trans-4-(Aminomethyl)cyclohexyl]carbonyl}amino)-3-oxo-3-{[4-(2H-tetrazol-5-yl)phenyl]amino}propyl]-2′-fluoro-2-methyl-N-(piperidin-4-yl)biphenyl-4-carboxamide hydrochloride] had a pIC50 against human factor XIa of 8.49. In addition, the “aPTT” value in the assay on human and animal plasma is 0.07 µmol/L.

Take `NC[C@H]1CC[C@H](C(=O)N[C@@H](Cc2ccc(-c3ccc(C(=O)NC4CC4)cc3)cc2)C(=O)Nc2ccc(-c3nnn[nH]3)cc2)CC1` [Example 62, 4′-[(2S)-2-({[trans-4-(Aminomethyl)cyclohexyl]carbonyl}amino)-3-oxo-3-{[4-(1H-tetrazol-5-yl)phenyl]amino}propyl]-N-cyclopropylbiphenyl-4-carboxamide hydrochloride]: the pIC50 against human factor XIa is 8.54. Moreover, the “aPTT” value with human and animal plasma came to 0.53 µmol/L.

Regarding `Cc1cc(C(=O)NC2CCC(N(C)C)CC2)ccc1-c1ccc(C[C@H](NC(=O)[C@H]2CC[C@H](CN)CC2)C(=O)Nc2ccc(-c3nn[nH]n3)c(F)c2)cc1` (stereo partly drawn) [Example 63, 4′-[(2S)-2-({[trans-4-(Aminomethyl)cyclohexyl]carbonyl}amino)-3-{[3-fluoro-4-(2H-tetrazol-5-yl)phenyl]amino}-3-oxopropyl]-N-[4-(dimethylamino)cyclohexyl]-2-methylbiphenyl-4-carboxamide hydrochloride], on human factor XIa, the pIC50 was 8.68. Besides, the “aPTT” value with human and animal plasma amounted to 0.01 µmol/L.

At human factor XIa, `Cc1cc(C(=O)NC2CCNCC2)ccc1-c1ccc(C[C@H](NC(=O)[C@H]2CC[C@H](CN)CC2)C(=O)Nc2ccc3[nH]c(C(F)(F)C(F)(F)C(F)(F)C(=O)O)nc3c2)cc1` [Example 65, 4-[5-({(2S)-2-({[trans-4-(Aminomethyl)cyclohexyl]carbonyl}amino)-3-[2′-methyl-4′-(piperidin-4-ylcarbamoyl)biphenyl-4-yl]propanoyl}amino)-1H-benzimidazol-2-yl]-2,2,3,3,4,4-hexafluorobutanoic acid hydrochloride] showed a negative-log IC50 (pIC50) of 7.59. Also, the “aPTT” value in the assay with human and animal plasma turned out to be 0.48 µmol/L.

In turn, `Cc1cc(C(=O)NC2CCN(C)CC2)ccc1-c1ccc(C[C@H](NC(=O)[C@H]2CC[C@H](CN)CC2)C(=O)Nc2ccc3[nH]c(C(F)(F)F)nc3c2)cc1` [Example 76, 4′-[(2S)-2-({[trans-4-(Aminomethyl)cyclohexyl]carbonyl}amino)-3-oxo-3-{[2-(trifluoromethyl)-1H-benzimidazol-5-yl]amino}propyl]-2-methyl-N-(1-methylpiperidin-4-yl)biphenyl-4-carboxamide hydrochloride] had a pIC50 against human factor XIa of 7.60. Besides, the “aPTT” value in the assay on human and animal plasma was determined as 0.37 µmol/L.

`Cc1cc(C(=O)NC2CCC(N(C)C)CC2)ccc1-c1ccc(C[C@H](NC(=O)[C@H]2CC[C@H](CN)CC2)C(=O)Nc2ccc3[nH]c(C(F)(F)F)nc3c2)cc1` (stereo partly drawn) [Example 77, 4′-[(2S)-2-({[trans-4-(Aminomethyl)cyclohexyl]carbonyl}amino)-3-oxo-3-{[2-(trifluoromethyl)-1H-benzimidazol-5-yl]amino}propyl]-N-[4-(dimethylamino)cyclohexyl]-2-methylbiphenyl-4-carboxamide hydrochloride]: the negative logarithm of the IC50 (pIC50) against human factor XIa is 8.08. In the assay on human and animal plasma, the “aPTT” value turned out to be 0.22 µmol/L.

For `Cc1cc(C(=O)N[C@H]2CC[C@H](N(C)C)CC2)ccc1-c1ccc(C[C@H](NC(=O)[C@H]2CC[C@H](CN)CC2)C(=O)Nc2ccc3[nH]c(C(F)(F)C(F)(F)F)nc3c2)cc1` [Example 78, 4′-[(2S)-2-({[trans-4-(Aminomethyl)cyclohexyl]carbonyl}amino)-3-oxo-3-{[2-(pentafluoroethyl)-1H-benzimidazol-5-yl]amino}propyl]-N-[4-(dimethylamino)cyclohexyl]-2-methylbiphenyl-4-carboxamide hydrochloride], the pIC50 at human factor XIa is 7.92. In the assay with human and animal plasma, the “aPTT” value is 0.38 µmol/L.

The record behind these values is patent US20160272617A1, “SUBSTITUTED PHENYLALANINE DERIVATIVES” (BAYER PHARMA AKTIENGESELLSCHAFT, priority 2013, published 2016).
